The source of these data is patent US20080276732A1, “INDICATOR FOR ORALLY ADMINISTERED COMPOSITIONS” (MULTI FORMULATIONS LTD., priority 2007, published 2008).

Data set [1] relates to subjects. Briefly: Testing the efficacy of Yohimbine in capsule form: perceived sensory effects after oral administration. It is filed as in vivo, human. As for the experimental part: In order to test the ability of orally administered Yohimbine to induce a sensory effect a test was conducted. Four subjects were given a capsule containing Yohimbine and asked to report on any perceived sensory effects. Each capsule contained 5 mg of Yohimbine and filled to 150 mg with lactose as a filler-binder.

Data set [2] relates to subjects. Description: Testing the efficacy of Picamilon in capsule form: perceived sensory effects after oral administration. It is filed as in vivo, human. To be noted: single 100 mg oral dose of Picamilon. As for the experimental part:
In order to test the ability of orally administered Picamilon to induce a sensory effect a test was conducted. Six subjects were given a capsule containing Picamilon and asked to report on any perceived sensory effects. Each capsule contained 100 mg of Picamilon and filled to 150 mg with lactose as a filler-binder.

Data set [3] concerns individuals. To be noted: Niacin at pharmacologically active doses; Benyo et al. 2005; cited from earlier work.
Data set [4] concerns subjects. To be noted: single 30 mg oral dose of Niacin. As for the experimental part: In order to test the ability of orally administered Niacin to induce a sensory effect a test was conducted. Five subjects were given a capsule containing Niacin and asked to report on any perceived sensory effects. Each capsule contained 30 mg of Niacin and filled to 150 mg with lactose as a filler-binder. Subjects were informed of the capsule contents and of possible effects. Subjects were asked to report any sensory effects felt, the time to onset and the duration of any effects.

The mark [5] stands for this setting: single 5 mg oral dose of Yohimbine, per subject.
The mark [6] stands for this setting: per subject, subject 1 separately for warmth and tingling.

Several values for one entry are separate records, joined by “and”; a condition that tells them apart may be missing. Equal values may be shown once. Entries after “also recorded” stand apart in the source; their conditions may differ. Read-outs that look alike come from different tables or passages of the source.

On to `COC(=O)[C@@H]1[C@H]2C[C@H]3c4[nH]c5ccccc5c4CCN3C[C@@H]2CC[C@@H]1O` [Yohimbine], for which, in data set [1] (5 mg Yohimbine, oral), the “onset time and duration of perceived sensory effects on average compared with Niacin and Picamilon” value is “longer onset time and longer duration”. Moreover, the “subjects who reported noticeable effects” value in data set [1] (single 5 mg oral dose of Yohimbine, four subjects) is “three of the four”. Also, in data set [1] (setting [5]), the Duration was 10 to 15 min and 60 min and 120 min; the “Time to Onset” value was 1 h and 0.5 h and 0.25 h.

Take `O=C(O)CCCNC(=O)c1cccnc1` [Picamilon, N-nicotinoyl-gamma-aminobutyric acid]: the “Sensory Effect(s)” value in data set [2] (capsule, one line per subject (1-6)) is listed as “tingling; also recorded: relaxation; also recorded: warmth - body”. In addition, the Duration in data set [2] (per subject) is 1.5 h; in data set [2] (setting [6]), 15-20 min and 45 min and 5 min (warmth) and 15 min. Besides, the “Time to Onset” value in data set [2] (setting [6]) was 15 min and 15-20 min (2×) and 10 min (warmth) and 30 min. Also, the “subjects who reported noticeable effects” value in data set [2] (six subjects) is “four of the six”.

Take `O=C(O)c1cccnc1` [Niacin, nicotinic acid]: the “duration of the flushing effect” value in data set [3] is on record as “about 1 hr”. In data set [4] (capsule, one line per subject), the Duration was 45 min (2×) and 15 min; the “Time to Onset” value was 10 to 15 min and 20 min and 15 min. Moreover, in data set [4] (five subjects), the “subjects who experienced transient sensory effects” value is “three of the five”. In addition, the “time until the individual perceives a sensory effect (summary)” value in data set [4] (summary of Table 1) is at most 15 min.
